Results as given in patent US11608309B2 (THE RESEARCH FOUNDATION FOR THE STATE UNIVERSITY OF NEW YORK, priority 2009, dated 2023).
Values joined by “and” are separate entries in the source; they are usually repeats but may differ in a detail not shown here. Equal values may be shown once.

Key:
[1] = target: purified human PMN MMP-8 (Homo sapiens (Human), UniProt P22894); assay: MMP-8 inhibition in vitro, synthetic octapeptide substrate, tripeptide products by HPLC; assay type: biochemical
[2] = system: neonatal rat ventricular myocytes; assay: Hydrogen peroxide induced LDH release; assay type: cell-based; conditions: H2O2 100 μM, compound 10 μM
Procedure: Neonatal rat ventricular myocytes, serum starved for 24 h, were treated with the inhibitors 1 h prior to the addition of 100 μM of hydrogen peroxide (Sigma). LDH release in the conditioned media was quantified using CytoTox-ONE Homogeneous Membrane Integrity Assay reagent (Promega) at the indicated time points.

[3] = target: MMP-9 (human leukocyte gelatinase) (Homo sapiens (Human), UniProt P14780); assay: MMP-9 inhibition in vitro, octapeptide/HPLC; assay type: biochemical
MMP-9 (human leukocyte gelatinase), sequence (P14780 94-707): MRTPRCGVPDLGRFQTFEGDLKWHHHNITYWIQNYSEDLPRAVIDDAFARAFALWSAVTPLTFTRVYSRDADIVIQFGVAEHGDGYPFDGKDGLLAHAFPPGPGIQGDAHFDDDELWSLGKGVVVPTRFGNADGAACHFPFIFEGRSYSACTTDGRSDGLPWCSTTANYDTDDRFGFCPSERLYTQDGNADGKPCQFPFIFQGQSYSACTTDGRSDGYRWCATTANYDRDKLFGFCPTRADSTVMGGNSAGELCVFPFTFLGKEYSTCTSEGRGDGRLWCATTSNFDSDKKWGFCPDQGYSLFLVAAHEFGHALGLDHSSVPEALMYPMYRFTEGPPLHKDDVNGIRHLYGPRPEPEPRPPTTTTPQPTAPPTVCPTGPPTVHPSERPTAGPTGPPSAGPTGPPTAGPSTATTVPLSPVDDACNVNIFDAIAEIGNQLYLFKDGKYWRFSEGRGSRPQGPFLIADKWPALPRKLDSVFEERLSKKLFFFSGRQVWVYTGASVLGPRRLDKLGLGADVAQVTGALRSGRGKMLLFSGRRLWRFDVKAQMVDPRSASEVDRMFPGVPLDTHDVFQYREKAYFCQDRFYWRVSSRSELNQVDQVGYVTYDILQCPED

[4] = Alveolar bone loss in diabetic rats; assay type: in vivo, rat; conditions: very high oral dose (500 mg/kg), 3 weeks
Procedure: (§1) At the end of the treatment protocol, the rats were sacrificed, blood samples were collected, and whole skin (except over limbs) and gingiva were dissected (the skin, because of ample quantities of tissue were analyzed for each rat separately; the gingiva, because of the tiny amounts that could be harvested per rat, were pooled for each experimental group, as prescribed previously for tetracycline studies (30). In addition, the jaw bones were collected, defleshed, and bone loss around the teeth analyzed morphometrically as described previously (42, 43).
Alveolar bone loss (the signature pathologic event in inflammatory periodontal disease) was assessed in the defleshed jaws of the compound 1-treated (TX) and untreated rats. Briefly, little or no difference in bone loss was seen comparing the untreated non-diabetic and untreated diabetic rat jaws (enhanced bone loss has been observed in diabetic rats previously when the duration of the hyperglycemia was greater than the 3-week experiment described herein).

[5] = system: neonatal rat ventricular myocytes; assay: Doxorubicin mediated caspase-3 activity; assay type: cell-based; conditions: doxorubicin 500 nM, 6 h and 24 h, compounds 10 μM
Procedure: Neonatal rat ventricular myocytes, serum starved for 24 h, were treated with the inhibitors 1 h prior to the addition of 500 nM of doxorubicin (Sigma). At the indicated time points cells were washed with ice-cold phosphate buffered saline and lysed using RIPA buffer (Pierce) containing protease and phosphatase inhibitors (Sigma). Caspase-3 activity in the cell lysates was measured by incubation with 7-amino-4-trifluoromethyl coumarin (Enzo).

[6] = system: PC-3 human prostate cancer cells; assay: MMP-9 in conditioned media of PC-3 cells (gelatin zymography, Western blot); assay type: cell-based; conditions: 10 μM and 20 μM, 48 hr
Procedure: Compound 1 was evaluated in a cell culture model of cancer. […] After the incubation, aliquots of the conditioned media were assayed for MMP-9 (gelatinase B) by either of two techniques, gelatin zymoyraphy (in the presence of 2 or 10 mMCa^++) and Western blot (both assays used purified MMP-9, 92 kDa gelatinase, as a standard).

[7] = Solubility in aqueous solutions; assay type: physicochemical
[8] = Hyperglycemia in streptozotocin-diabetic rats, 1-week oral treatment; assay type: in vivo, rat; conditions: 100 mg/kg oral once/day for 7 days
Excerpt: The purpose of the following was to establish an in vivo model of excessive collagen degradation to be used to test efficacy of the compounds of the subject invention. Male Sprague-Dawley rats (typically 300-400 gms of body weight), specific viral antibody free, were ordered from Charles River. Following general anesthesia via isoflurane anesthetic inhalation, diabetes was induced by an I.V. administration of streptozotocin (STZ) (50* mg/kg body weight) (Sigma Chemical Co., St Louis, Mo., USA) diluted in 0.9% citrated saline (pH 4.5), after 12 hours of fasting. After the streptozotocin injection, the animals were given free access to water and food. […] In this test, the test-paper color changes to dark brown which indicates glycosuria.
The latter assays were carried out using Western blot analysis with monoclonal antibodies to MMP-8.

[9] = target: MMP-2 (Rattus norvegicus (Rat), UniProt P33436); assay: Skin MMP-2 by ELISA in diabetic rats; assay type: in vivo; conditions: both low and high doses
Procedure: as §1

[10] = target: IL-1β (Rattus norvegicus (Rat), UniProt Q63264); assay: Gingiva IL-1β by ELISA in diabetic rats; assay type: in vivo; conditions: lower oral dose (100 mg/kg), 3 weeks
Procedure: as §1

[11] = Diabetic adverse events in rats; assay type: in vivo, rat; conditions: 1-week oral treatment, n = 6
[12] = system: LPS-challenged human monocytes; assay: Cytokine and growth factor levels in LPS-challenged human monocytes (Luminex multiplex); assay type: cell-based; conditions: 2 μM
Procedure: The cytokine levels were measured by Luminex multiplex, a method that allows the simultaneous measurement of different biological markers.

[13] = system: human monocytes; assay: Cytotoxicity in human monocytes (MTS); assay type: cell-based
Procedure: Briefly, human peripheral blood monocytes (HMs) were isolated from a leukocyte concentrate by density gradient centrifugation (Lymphoprep) and the isolated HMs cultured (2 h, 37° C.) to remove non-adherant cells. […] After incubation, the proinflammatory cytokines, TNFα, IL-1β, MCP-1 and IL-6 were measured in the conditioned media by ELISA and cytotoxicity was assessed by measuring the absorbance (490 ran) of formazan produced by reduction of MTS. The HMs alone ±0.1-0.5% DMSO produced minimal levels of these pro-inflammatory cytokines. However, addition of 100 ng/ml or 10 μg/ml of LPS both dramatically stimulated cytokine production.

[14] = system: TNF-α; assay: TNF-α production by LPS-stimulated human monocytes (ELISA); assay type: cell-based; conditions: 10 and 20 μM
Procedure: Briefly, human peripheral blood monocytes (HMs) were isolated from a leukocyte concentrate by density gradient centrifugation (Lymphoprep) and the isolated HMs cultured (2 h, 37° C.) to remove non-adherant cells. The adherent HMs were cultured for 18 h (1×10^6 cells/well, 24-well plates)±endotoxin (LPS)±different compounds dissolved in DMSO (the final concentration of DMSO in the RPMI serum-free culture media with Pen./Strep, antibiotics was no greater than 0.5%). After incubation, the proinflammatory cytokines, TNFα, IL-1β, MCP-1 and IL-6 were measured in the conditioned media by ELISA and cytotoxicity was assessed by measuring the absorbance (490 ran) of formazan produced by reduction of MTS. The HMs alone ±0.1-0.5% DMSO produced minimal levels of these pro-inflammatory cytokines. However, addition of 100 ng/ml or 10 μg/ml of LPS both dramatically stimulated cytokine production.

purified human PMN MMP-8, sequence (P22894 101-467): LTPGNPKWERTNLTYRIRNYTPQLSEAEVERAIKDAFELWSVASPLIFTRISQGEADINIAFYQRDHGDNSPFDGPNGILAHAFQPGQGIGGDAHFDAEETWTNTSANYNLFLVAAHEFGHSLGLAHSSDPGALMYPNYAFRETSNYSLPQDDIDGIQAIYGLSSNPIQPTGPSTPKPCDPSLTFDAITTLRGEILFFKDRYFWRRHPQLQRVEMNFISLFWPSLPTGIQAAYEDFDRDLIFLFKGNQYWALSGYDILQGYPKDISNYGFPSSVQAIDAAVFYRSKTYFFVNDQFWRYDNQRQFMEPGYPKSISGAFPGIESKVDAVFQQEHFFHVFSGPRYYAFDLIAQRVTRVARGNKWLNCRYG

Q: For `c1cnc2c(c1)ccc1cccnc12` [1,10-phenanthroline, 1,10-O-phenanthroline], which IC50 ([1]; read-out: IC50 against purified hMMP-8) is on record?
A: 10 µM and 35 µM

Q: For `COC(=O)C(C(=O)/C=C/c1ccc(O)c(OC)c1)C(=O)/C=C/c1ccc(O)c(OC)c1` [Compound 1, 1,7-Bis(4-hydroxy-3-methoxyphenyl)-4-methoxycarbonylhepta-1E,6E-dien-3,5-dione], which “Effect on LDH release” value ([2]; 24 h) is on record?
A: less dramatic effect

Q: What about the IC50 [3] of the same compound?
A: 6 to 17 µM

Q: And the “Reduction in alveolar bone loss vs untreated groups” value [4]?
A: less effective

Q: And the “Modulation of doxorubicin mediated caspase-3 activity” value [5]?
A: None of the MMP inhibitors, including compound 1, negatively modulate caspase-3 activity

Q: What about the “Production and/or activity of MMP-9” value [6] of the same compound?
A: inhibited the production and/or activity of MMP-9

Q: What about the Solubility [7] of the same compound?
A: more soluble than the insoluble natural product curcumin

Q: What about the “Effect on severity of hyperglycemia (serum glucose)” value [8] of the same compound?
A: no effect

Q: What about the “Reduction of elevated MMP-2 level in skin” value [9] of the same compound?
A: 28%

Q: What about the “Reduction of IL-1β in gingiva vs untreated diabetic” value [10] of the same compound?
A: about 18%

Q: And the “Description of AEs” value [11]?
A: Minor inflamed sclera

Q: And the “Incidence of Adverse Events (AEs)” value [11]?
A: 1/6

Q: And the “Reduction of MCP-1, TNFα and VEGF levels” value [12]?
A: potent in reducing

Q: And the “Cytotoxicity Monocytes @ 5 h incubation” value ([13]; 2 uM)?
A: 2 uM- 0%

Q: What about the “Cytotoxicity Monocytes @ 5 h incubation” value ([13]; 10 uM) of the same compound?
A: 10 uM- 0%

Q: For `COC(=O)C(C(=O)/C=C/c1ccc(O)cc1)C(=O)/C=C/c1ccc(O)cc1` [Compound 3, 1,7-Bis(4-hydroxyphenyl)-4-methoxycarbonylhepta-1E,6E-dien-3,5-dione], which IC50 [3] is on record?
A: 6 to 17 µM

Q: What about the Solubility [7] of the same compound?
A: more soluble in aqueous solutions than compound 1

Q: And the “IC50 collagenase (MMP-8) activity” value ([1]; Example 7 experiment, 37° C., 1 mM Ca++)?
A: more potent as a collagenase or MMP inhibitor than compound 1

Q: Which IC50 [3] does the source give for `COc1cc(/C=C/C(=O)CC(=O)/C=C/c2ccc(N(C)C)cc2)ccc1O` [Compound 4] here?
A: 6 to 17 µM

Q: What does the source list for `COc1cc(/C=C/C(=O)CC(=O)/C=C/c2ccc(O)c(OC)c2)ccc1O` [Curcumin, diferuloylmethane]?
A: Effect on TNFα production by endotoxin-stimulated human monocytes [14]: no effect; Solubility [7]: insoluble; Cytotoxicity Monocytes @ 5 h incubation ([13]; 10 uM): 10 uM- 0%; Cytotoxicity Monocytes @ 18 h incubation ([13]; 10 uM, 18 h): 10 uM- 0%; Cytotoxicity associated with TNFα inhibitory effect ([13]; 50 and 100 μM, some precipitation in cell culture): significant cytotoxicity

Q: Which “Effect on LDH release” value [2] does the source give for `CNC(=O)[C@H](Cc1c[nH]c2ccccc12)NC(=O)[C@@H](CC(=O)NO)CC(C)C` [GM-6001] here?
A: did not affect LDH release

Q: Which “Effect on LDH release” value [2] does the source give for `CCOCOC[C@H](C[C@H](C)C(=O)NO)NC(=O)c1ccc(Oc2ccccc2)cc1` [ONO-4817] here?
A: did not affect LDH release
